Measurements reported in PMC5360100 (Biochemical pharmacology, 2011).

How the values were obtained:
Test in all cases: […]cAMP formation from [alpha-32P]ATP, Sf9 membranes
Type in all cases: biochemical
bovine AC1 [1] = target: T1, bovine AC1 (Bos taurus, UniProt P19754); conditions: 300 µM; 7 mM Mg2+, 40 μM ATP, 10 μM GTPγS, pH 7.4, 30°C, 3% DMSO
rat AC2 [2] = target: T2, rat AC2 (Rattus norvegicus, UniProt P26769); conditions: 300 µM; 7 mM Mg2+, 40 μM ATP, 10 μM GTPγS, pH 7.4, 30°C, 3% DMSO
canine AC5 [3] = target: T3, canine AC5 (Canis lupus, UniProt P30803); conditions: 300 µM; 7 mM Mg2+, 40 μM ATP, 10 μM GTPγS, pH 7.4, 30°C, 3% DMSO
rat AC2 [4] = target: T2, rat AC2
bovine AC1 [5] = target: T1, bovine AC1
canine AC5 [6] = target: T3, canine AC5

T2 sequence (P26769 whole entry): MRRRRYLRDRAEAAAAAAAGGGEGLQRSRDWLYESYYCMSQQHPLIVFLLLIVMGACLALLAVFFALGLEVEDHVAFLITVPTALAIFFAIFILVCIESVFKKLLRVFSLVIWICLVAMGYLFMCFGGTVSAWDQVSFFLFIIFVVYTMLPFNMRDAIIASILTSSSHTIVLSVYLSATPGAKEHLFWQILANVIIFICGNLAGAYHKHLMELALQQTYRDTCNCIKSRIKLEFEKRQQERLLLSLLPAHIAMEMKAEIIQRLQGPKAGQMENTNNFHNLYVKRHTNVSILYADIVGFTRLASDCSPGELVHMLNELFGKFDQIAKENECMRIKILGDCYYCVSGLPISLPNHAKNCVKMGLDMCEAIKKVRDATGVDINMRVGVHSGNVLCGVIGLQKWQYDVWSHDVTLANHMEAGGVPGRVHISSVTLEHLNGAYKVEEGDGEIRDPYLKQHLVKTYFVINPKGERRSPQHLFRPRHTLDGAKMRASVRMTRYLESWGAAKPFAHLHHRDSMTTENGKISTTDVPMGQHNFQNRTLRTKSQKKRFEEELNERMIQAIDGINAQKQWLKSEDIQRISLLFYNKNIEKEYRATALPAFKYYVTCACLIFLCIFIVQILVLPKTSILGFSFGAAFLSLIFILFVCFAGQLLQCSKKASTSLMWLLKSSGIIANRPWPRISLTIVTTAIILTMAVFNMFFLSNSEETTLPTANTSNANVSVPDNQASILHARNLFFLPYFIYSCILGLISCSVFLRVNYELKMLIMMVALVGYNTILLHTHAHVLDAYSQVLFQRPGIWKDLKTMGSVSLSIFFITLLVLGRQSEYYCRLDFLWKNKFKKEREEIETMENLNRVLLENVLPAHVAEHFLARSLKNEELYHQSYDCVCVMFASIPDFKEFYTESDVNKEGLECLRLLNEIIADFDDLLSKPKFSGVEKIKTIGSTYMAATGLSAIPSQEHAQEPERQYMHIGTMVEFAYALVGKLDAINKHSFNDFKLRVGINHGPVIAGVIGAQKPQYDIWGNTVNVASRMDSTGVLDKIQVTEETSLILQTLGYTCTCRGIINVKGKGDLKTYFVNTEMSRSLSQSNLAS
T3 sequence (P30803 whole entry): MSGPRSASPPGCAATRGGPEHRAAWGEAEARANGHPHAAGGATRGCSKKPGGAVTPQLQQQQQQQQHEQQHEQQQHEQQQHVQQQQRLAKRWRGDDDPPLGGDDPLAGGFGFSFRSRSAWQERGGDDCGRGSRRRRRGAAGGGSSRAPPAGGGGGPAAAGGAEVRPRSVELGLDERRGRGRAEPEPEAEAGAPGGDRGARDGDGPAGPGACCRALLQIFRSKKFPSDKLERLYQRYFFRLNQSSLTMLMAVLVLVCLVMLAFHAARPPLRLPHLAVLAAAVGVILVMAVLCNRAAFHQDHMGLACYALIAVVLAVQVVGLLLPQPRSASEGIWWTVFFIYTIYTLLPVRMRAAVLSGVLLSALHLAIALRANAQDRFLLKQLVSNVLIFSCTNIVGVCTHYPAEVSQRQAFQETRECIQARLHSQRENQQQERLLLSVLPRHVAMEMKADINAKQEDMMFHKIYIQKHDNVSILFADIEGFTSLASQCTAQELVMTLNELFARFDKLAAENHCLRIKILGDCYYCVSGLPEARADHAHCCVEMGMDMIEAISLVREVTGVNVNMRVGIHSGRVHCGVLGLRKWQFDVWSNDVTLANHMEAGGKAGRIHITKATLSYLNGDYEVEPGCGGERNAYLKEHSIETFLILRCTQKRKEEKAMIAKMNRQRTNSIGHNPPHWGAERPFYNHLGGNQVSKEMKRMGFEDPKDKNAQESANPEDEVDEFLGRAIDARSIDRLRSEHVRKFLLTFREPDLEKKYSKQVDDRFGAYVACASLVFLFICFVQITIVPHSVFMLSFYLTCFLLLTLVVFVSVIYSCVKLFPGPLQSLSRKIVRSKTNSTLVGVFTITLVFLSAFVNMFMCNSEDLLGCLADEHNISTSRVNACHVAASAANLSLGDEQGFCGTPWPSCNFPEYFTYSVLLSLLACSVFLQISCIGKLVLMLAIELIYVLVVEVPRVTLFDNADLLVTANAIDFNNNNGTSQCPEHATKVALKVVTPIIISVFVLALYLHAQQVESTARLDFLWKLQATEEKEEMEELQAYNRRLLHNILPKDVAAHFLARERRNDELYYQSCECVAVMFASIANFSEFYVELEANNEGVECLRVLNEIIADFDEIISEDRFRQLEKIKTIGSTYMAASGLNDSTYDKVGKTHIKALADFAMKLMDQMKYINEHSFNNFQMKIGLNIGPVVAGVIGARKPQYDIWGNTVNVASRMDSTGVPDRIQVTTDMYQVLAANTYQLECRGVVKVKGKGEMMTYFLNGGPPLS
T1 sequence (P19754 whole entry): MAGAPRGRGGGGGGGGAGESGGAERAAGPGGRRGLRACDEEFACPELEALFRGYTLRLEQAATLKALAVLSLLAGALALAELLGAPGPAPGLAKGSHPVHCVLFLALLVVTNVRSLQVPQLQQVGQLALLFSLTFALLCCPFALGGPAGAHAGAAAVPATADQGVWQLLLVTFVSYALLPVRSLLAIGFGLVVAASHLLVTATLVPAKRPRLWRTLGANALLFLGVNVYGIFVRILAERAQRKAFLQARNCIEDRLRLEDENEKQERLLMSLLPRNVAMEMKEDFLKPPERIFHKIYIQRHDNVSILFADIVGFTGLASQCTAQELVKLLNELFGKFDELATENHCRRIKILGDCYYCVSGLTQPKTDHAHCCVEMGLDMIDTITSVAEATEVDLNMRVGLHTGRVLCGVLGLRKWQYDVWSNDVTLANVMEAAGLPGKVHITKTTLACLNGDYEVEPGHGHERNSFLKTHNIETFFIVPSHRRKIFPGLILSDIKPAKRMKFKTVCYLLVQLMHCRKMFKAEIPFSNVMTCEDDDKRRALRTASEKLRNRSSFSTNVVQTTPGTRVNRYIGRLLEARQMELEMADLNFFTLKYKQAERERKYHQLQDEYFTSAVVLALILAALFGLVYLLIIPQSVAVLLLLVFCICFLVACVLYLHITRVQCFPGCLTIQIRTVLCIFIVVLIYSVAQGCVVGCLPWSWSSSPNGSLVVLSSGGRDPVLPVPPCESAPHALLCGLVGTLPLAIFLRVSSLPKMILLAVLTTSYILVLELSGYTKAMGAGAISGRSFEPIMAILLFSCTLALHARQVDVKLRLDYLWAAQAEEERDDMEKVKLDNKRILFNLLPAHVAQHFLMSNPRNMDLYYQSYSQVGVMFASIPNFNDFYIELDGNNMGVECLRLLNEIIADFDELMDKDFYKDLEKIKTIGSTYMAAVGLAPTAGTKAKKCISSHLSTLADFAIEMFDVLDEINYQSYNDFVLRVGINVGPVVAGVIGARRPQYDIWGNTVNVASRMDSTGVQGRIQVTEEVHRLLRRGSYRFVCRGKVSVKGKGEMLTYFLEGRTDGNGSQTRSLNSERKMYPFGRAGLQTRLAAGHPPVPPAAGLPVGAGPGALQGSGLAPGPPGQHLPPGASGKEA

AC1 / Efficacy [%] (bovine AC1 [1])	AC2 / Efficacy [%] (rat AC2 [2])	AC5 / Efficacy [%] (canine AC5 [3])	EC50 (rat AC2 [4])	EC50 (bovine AC1 [5])	EC50 (canine AC5 [6])	Compound
11.1 ± 4.7%	1.7 ± 3.4%	14.7 ± 4.4%				C=C[C@@]1(C)CC(=O)[C@]2(O)[C@@]3(C)CCCC(C)(C)[C@@H]3[C@H](O)[C@H](OC(C)=O)[C@@]2(C)O1 [1d-FS]
			1.8 µM	6.5 ± 2.1 µM	52.1 ± 16.7 µM	C=C[C@@]1(C)CC(=O)[C@]2(O)[C@@]3(C)[C@@H](O)CCC(C)(C)[C@@H]3[C@H](OC(C)=O)[C@H](O)[C@@]2(C)O1 [6A7DA-FS]
			242 ± 113 µM	16.8 ± 3 µM	77.8 ± 46.1 µM	C=C[C@@]1(C)CC(=O)[C@H]2[C@](C)(O1)[C@@H](OC(C)=O)[C@@H](O)[C@H]1C(C)(C)CC[C@H](O)[C@@]12C [9d-FS]
			47.3 ± 8.1 µM	5.5 ± 0.8 µM	4.6 ± 1.5 µM	C=C[C@@]1(C)CC(=O)[C@]2(O)[C@@]3(C)[C@@H](O)CCC(C)(C)[C@@H]3[C@H](O)[C@H](OC(C)=O)[C@@]2(C)O1 [FS]
